{"source": "ChEMBL document CHEMBL1128902", "about": "“Selectively deoxygenated sulfated tetrasaccharides as probes for the investigation of smooth muscle cell antiproliferative activity” (1996)", "species": "Rattus norvegicus", "assay": "Antiproliferative activity against rat smooth muscle cell (SMC) expressed as relative activity compared to heparin; ri is relative inhibitory activity", "type": "functional"}
{"smiles": "C[C@@H]1O[C@H](O[C@H]2[C@H](O)[C@H](O)[C@H](O[C@H]3[C@H](O)[C@H](O)[C@@H](O[C@H]4O[C@H](CO)[C@@H](O)[C@@H](O)[C@@H]4O)O[C@H]3CO)O[C@H]2CO)[C@@H](O)[C@@H](O)[C@@H]1O", "values": [{"measurement": "Relative inhibitory activity", "value": 0.6}]}
{"smiles": "OC[C@H]1O[C@H](O[C@H]2O[C@H](CO)[C@@H](O[C@H]3O[C@H](CO)[C@@H](O[C@H]4O[C@H](CO)[C@@H](O)[C@H](O)[C@H]4O)[C@H](O)[C@H]3O)[C@H](O)[C@H]2O)[C@H](O)[C@@H](O)[C@@H]1O", "values": [{"measurement": "Relative inhibitory activity", "value": 0.9}]}
